According to patent publication US11957701B2, “Therapy and new therapeutic agent for blood cancer” (Delta-Fly Pharma, Inc., priority 2020, dated 2024):
Structures can show the parent of a compound that is named as a salt. Where two headings read alike, the source gives them in different places.

Tested on: MV4-11
Assay: Combined use under low protein content, MTT assay after 48 hours
Format: cell-based, human
Conditions: MV4-11, low protein content

Row | Molecule | IC50 (Homo sapiens, read-out: IC50 value of DFP-10917 alone) | IC50 (read-out: IC50 value of venetoclax alone)
1 | N#C[C@H]1[C@H](O)[C@@H](CO)O[C@H]1n1ccc(N)nc1=O [DFP-10917, 4-amino-1-(2-cyano-2-deoxy-β-D-arabinofuranosyl)-2(1H)-pyrimidinone monohydrochloride] | 1530 nM | 
2 | venetoclax |  | 0.0968 nM
